From patent publication US7973012B2, “C-phenyl glycitol compound” (Taisho Pharmaceutical Co., Ltd, priority 2006, dated 2011)

Key:
human SGLT1 = target: T1, human SGLT1 (Homo sapiens, UniProt P13866); test: Inhibition test of sodium-dependent sugar uptake in CHO-k1 cells stably expressing human SGLT1; assay type: cell-based; settings: sugar uptake inhibition rate at 100 nM test compound vs control group
T1 construct: expressed in transfected cells; host or cells: CHO-k1
T1 sequence (P13866 1-664): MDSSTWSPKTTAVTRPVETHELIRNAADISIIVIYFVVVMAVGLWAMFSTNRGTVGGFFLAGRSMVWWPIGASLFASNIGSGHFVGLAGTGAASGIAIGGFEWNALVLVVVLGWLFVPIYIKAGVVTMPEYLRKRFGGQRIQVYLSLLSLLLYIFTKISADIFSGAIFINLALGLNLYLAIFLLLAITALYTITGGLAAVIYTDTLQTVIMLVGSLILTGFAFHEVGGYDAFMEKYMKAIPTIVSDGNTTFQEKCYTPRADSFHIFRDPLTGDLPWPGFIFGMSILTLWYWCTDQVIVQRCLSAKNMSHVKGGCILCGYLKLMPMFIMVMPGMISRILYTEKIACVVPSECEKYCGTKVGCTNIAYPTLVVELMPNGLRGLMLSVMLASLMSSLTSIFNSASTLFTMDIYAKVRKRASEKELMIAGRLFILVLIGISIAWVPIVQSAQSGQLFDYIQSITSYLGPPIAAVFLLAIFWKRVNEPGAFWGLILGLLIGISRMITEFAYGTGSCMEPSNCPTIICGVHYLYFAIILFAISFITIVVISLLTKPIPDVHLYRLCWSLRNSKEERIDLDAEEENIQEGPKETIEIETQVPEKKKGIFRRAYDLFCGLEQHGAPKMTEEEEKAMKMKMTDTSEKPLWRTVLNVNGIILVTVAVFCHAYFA
Description: (§1) An SGLT1 sequence (NM_000343) was reverse-transcripted from human small intestinal mRNA, then amplified, and then introduced into pCMV-tag5A from Stratagene Corporation. An SGLT2 sequence (NM_003041) was prepared from human nephric mRNA as with the above method, and then introduced into pcDNA3.1+hygro from Invitrogen Corporation. Each cloned sequence was confirmed to be identical with the reported sequence.
(§2) The human SGLT1 and human SGLT2 expression vectors were transfected into CHO-k1 cells by using Lipofectamine 2000 from Invitrogen Corporation. The SGLT expression cells were incubated in the presence of Geneticin (SGLT1) or Hygromycin B (SGLT2) at a 500 μg/mL concentration to select resistant strains, and specific activity of sugar uptake was obtained as an indicator by the following system.
(§3) Cells stably expressing human SGLT1 and human SGLT2 were used for the inhibition test of sodium-dependent glucose uptake.
(§4) The cells were incubated in a pretreatment buffer A (200 μL for SGLT1, and 2 mL for SGLT2) for 20 minutes. The pretreatment buffer was removed and an uptake buffer B (75 μL for SGLT1, and 200 μL for SGLT2) containing a test compound was added to conduct an uptake reaction at 37° C. for 30 minutes (SGLT1) or an hour (SGLT2). After the reaction, the cells were washed with a washing buffer C twice (200 μL for SGLT1, and 2 mL for SGLT2), and then dissolved in a 0.2 M solution of NaOH (75 μL for SGLT1, and 400 μL for SGLT2). After a liquid scintilater was added thereto and mixed sufficiently, radioactivity was measured with microBETA (SGLT1) or a liquid scintillation counter from Beckman Coulter, Inc (SGLT2). As a control group, an uptake buffer containing no test compound was prepared. In addition, as the basic uptake buffer, an uptake buffer B containing choline chloride instead of NaCl was prepared. • A pretreatment buffer A: 140 mM choline chloride, 2 mM KCl, 1 mM CaCl2, 1 mM MgCl2, 10 mM HEPES/5 mM Tris, pH 7.4. • An uptake buffer B: 1 mM of methyl α-D-glucopyranoside containing [^14C]methyl α-D-glucopyranoside, 140 mM NaCl, 2 mM KCl, 1 mM CaCl2, 1 mM MgCl2, 10 mM HEPES/5 mM Tris, pH 7.4. • A washing buffer C: 10 mM methyl α-D-glucopyranoside, 140 mM choline chloride, 2 mM KCl, 1 mM CaCl2, 1 mM MgCl2, 10 mM HEPES/5 mM Tris, pH 7.4.
(§5) In order to obtain IC50 values, test compounds having adequate 6 concentrations were used and the test compound concentrations (IC50 values) at which sugar uptake is inhibited by 50% in comparison with the amount of sugar uptake (100%) of the control group were calculated.
(§6) In addition, the sugar uptake inhibition rates at 100 nM concentration of the test compound in comparison with the control group are shown in Table 7.

human SGLT2 = target: T2, human SGLT2 (Homo sapiens, UniProt P31639); test: Inhibition test of sodium-dependent sugar uptake in CHO-k1 cells stably expressing human SGLT2; assay type: cell-based; settings: sugar uptake inhibition rate at 100 nM test compound vs control group
T2 construct: expressed in transfected cells; host or cells: CHO-k1
T2 sequence (P31639 1-672): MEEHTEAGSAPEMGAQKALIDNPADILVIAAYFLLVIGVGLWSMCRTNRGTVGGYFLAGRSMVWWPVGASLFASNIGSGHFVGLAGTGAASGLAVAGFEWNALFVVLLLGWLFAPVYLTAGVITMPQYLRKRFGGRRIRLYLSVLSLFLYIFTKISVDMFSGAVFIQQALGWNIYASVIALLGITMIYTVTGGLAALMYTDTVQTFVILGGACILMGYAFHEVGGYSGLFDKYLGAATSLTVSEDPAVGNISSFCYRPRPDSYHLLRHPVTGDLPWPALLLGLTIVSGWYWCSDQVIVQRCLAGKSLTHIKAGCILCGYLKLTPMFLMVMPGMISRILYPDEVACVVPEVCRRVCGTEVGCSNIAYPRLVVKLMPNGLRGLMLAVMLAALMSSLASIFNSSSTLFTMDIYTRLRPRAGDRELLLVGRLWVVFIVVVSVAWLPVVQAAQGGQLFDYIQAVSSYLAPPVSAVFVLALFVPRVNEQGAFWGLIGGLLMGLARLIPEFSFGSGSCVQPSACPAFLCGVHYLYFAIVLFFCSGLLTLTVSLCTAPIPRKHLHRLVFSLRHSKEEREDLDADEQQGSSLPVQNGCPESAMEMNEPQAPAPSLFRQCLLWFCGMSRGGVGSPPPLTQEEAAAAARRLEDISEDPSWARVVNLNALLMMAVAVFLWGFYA
Description: as §1, §2, §3, §4, §5, §6

Row | Compound | SGLT1 % inhibition at 100 nM (human SGLT1) [%] | SGLT2 % inhibition at 100 nM (human SGLT2) [%]
1 | Cc1cc(O)c([C@@H]2O[C@H](CO)[C@@H](O)[C@H](O)[C@H]2O)cc1Cc1ccc(CCNC(=O)NCc2ccco2)cc1 [Compound 42] | 78 | 87
2 | Cc1cc(O)c([C@@H]2O[C@H](CO)[C@@H](O)[C@H](O)[C@H]2O)cc1Cc1ccc(CCNC(=O)NC(CO)C(C)C)cc1 (stereo partly drawn) [Compound 43] | 77 | 86
3 | Cc1cc(O)c(C2OC(CO)C(O)C(O)C2O)cc1Cc1ccc(CCNC(=O)NC(CO)CC(C)C)cc1 (stereo not drawn) [Compound 46] | 74 | 91
4 | CSCC[C@@H](CO)NC(=O)NCCc1ccc(Cc2cc([C@@H]3O[C@H](CO)[C@@H](O)[C@H](O)[C@H]3O)c(O)cc2C)cc1 [Compound 47] | 73 | 89
5 | Cc1cc(O)c([C@@H]2O[C@H](CO)[C@@H](O)[C@H](O)[C@H]2O)cc1Cc1ccc(CCNC(=O)N[C@H](CO)Cc2ccccc2)cc1 [Compound 48] | 73 | 87
6 | CCC(CO)NC(=O)NCCc1ccc(Cc2cc([C@@H]3O[C@H](CO)[C@@H](O)[C@H](O)[C@H]3O)c(O)cc2C)cc1 (stereo partly drawn) [Compound 50] | 71 | 77
7 | COc1cccc(CCNC(=O)NCCc2ccc(Cc3cc([C@@H]4O[C@H](CO)[C@@H](O)[C@H](O)[C@H]4O)c(O)cc3C)cc2)c1 [Compound 51] | 71 | 84
8 | Cc1cc(O)c([C@@H]2O[C@H](CO)[C@@H](O)[C@H](O)[C@H]2O)cc1Cc1ccc(CCNC(=O)NCCc2ccc(F)cc2)cc1 [Compound 52] | 71 | 84
9 | Cc1cc(O)c([C@@H]2O[C@H](CO)[C@@H](O)[C@H](O)[C@H]2O)cc1Cc1ccc(CCNC(=O)NCC(c2ccccc2)c2ccccc2)cc1 [Compound 53] | 70 | 74
10 | COC(=O)C(NC(=O)NCCc1ccc(Cc2cc(C3OC(CO)C(O)C(O)C3O)c(O)cc2C)cc1)C(C)(C)C (stereo not drawn) [Compound 54] | 79 | 73
11 | COc1ccc(CCNC(=O)NCCc2ccc(Cc3cc([C@@H]4O[C@H](CO)[C@@H](O)[C@H](O)[C@H]4O)c(O)cc3C)cc2)cc1OC [Compound 55] | 69 | 69
12 | CCCNC(=O)NCCc1ccc(Cc2cc([C@@H]3O[C@H](CO)[C@@H](O)[C@H](O)[C@H]3O)c(O)cc2C)cc1 [Compound 56] | 68 | 77
13 | COc1ccc(CCN(C)C(=O)NCCc2ccc(Cc3cc([C@@H]4O[C@H](CO)[C@@H](O)[C@H](O)[C@H]4O)c(O)cc3C)cc2)cc1OC [Compound 57] | 68 | 51
14 | Cc1cc(O)c([C@@H]2O[C@H](CO)[C@@H](O)[C@H](O)[C@H]2O)cc1Cc1ccc(CCNC(=O)N(CC(C)C)CC(C)C)cc1 [Compound 59] | 67 | 86
15 | Cc1cc(O)c([C@@H]2O[C@H](CO)[C@@H](O)[C@H](O)[C@H]2O)cc1Cc1ccc(CCNC(=O)NC(Cc2ccccc2)C(N)=O)cc1 (stereo partly drawn) [Compound 60] | 66 | 91
16 | Cc1cc(O)c([C@@H]2O[C@H](CO)[C@@H](O)[C@H](O)[C@H]2O)cc1Cc1ccc(CCNC(=O)NCc2cc3ccccc3s2)cc1 [Compound 61] | 65 | 95
17 | Cc1cc(O)c([C@@H]2O[C@H](CO)[C@@H](O)[C@H](O)[C@H]2O)cc1Cc1ccc(CCNC(=O)NCCCCc2ccccc2)cc1 [Compound 62] | 65 | 79
18 | Cc1cc(O)c([C@@H]2O[C@H](CO)[C@@H](O)[C@H](O)[C@H]2O)cc1Cc1ccc(CCNC(=O)NCCc2ccc(O)cc2)cc1 [Compound 63] | 63 | 81
19 | Cc1cc(O)c([C@@H]2O[C@H](CO)[C@@H](O)[C@H](O)[C@H]2O)cc1Cc1ccc(CCNC(=O)NCC2OCCO2)cc1 [Compound 64] | 62 | 76
20 | Cc1cc(O)c([C@@H]2O[C@H](CO)[C@@H](O)[C@H](O)[C@H]2O)cc1Cc1ccc(CCNC(=O)NCC2CCCO2)cc1 (stereo partly drawn) [Compound 65] | 62 | 76
21 | Cc1cc(O)c([C@@H]2O[C@H](CO)[C@@H](O)[C@H](O)[C@H]2O)cc1Cc1ccc(CCNC(=O)NCC(O)COc2ccccc2)cc1 (stereo partly drawn) [Compound 66] | 62 | 83
22 | Cc1cc(O)c([C@@H]2O[C@H](CO)[C@@H](O)[C@H](O)[C@H]2O)cc1Cc1ccc(CCNC(=O)NCCN2CCCCC2)cc1 [Compound 67] | 61 | 82
23 | Cc1cc(O)c([C@@H]2O[C@H](CO)[C@@H](O)[C@H](O)[C@H]2O)cc1Cc1ccc(CCNC(=O)NCc2ccccc2)cc1 [Compound 68] | 60 | 83
24 | Cc1cc(O)c([C@@H]2O[C@H](CO)[C@@H](O)[C@H](O)[C@H]2O)cc1Cc1ccc(CCNC(=O)NCCc2ccccc2)cc1 [Compound 71] | 59 | 86
25 | Cc1cc(O)c([C@@H]2O[C@H](CO)[C@@H](O)[C@H](O)[C@H]2O)cc1Cc1ccc(CCNC(=O)NC2C3CC4CC(C3)CC2C4)cc1 (stereo partly drawn) [Compound 123] | 78 | 87
26 | Cc1cc(O)c([C@@H]2O[C@H](CO)[C@@H](O)[C@H](O)[C@H]2O)cc1Cc1ccc(CCNC(=O)NC2CCCC2)cc1 [Compound 125] | 68 | 90
27 | Cc1cc(O)c([C@@H]2O[C@H](CO)[C@@H](O)[C@H](O)[C@H]2O)cc1Cc1ccc(CCNC(=O)NC2Cc3ccccc3C2)cc1 [Compound 138] | 65 | 84
